# In PubChem BioAssay AID2060508 (Molecular Pharmacology Branch, DTP, NCI, 2025):
# System: 454973-116-R2-J3-PDC spheroids, viability, % test/control
# Assay: Anticancer human tumor 454973-116-R2-J3-PDC patient-derived pancreatic carcinoma cell line growth inhibition [GQUAD]
# Details: spheroids with HUVEC and MSC; for IC50: curve of first compound; for viability, T/C: stronger effect = lower value
# Source text: DNA G-quadruplex Stabilizer Agents in Combinations in Complex Spheroids
# A high-throughput screen of multi-cell type tumor spheroids was designed to identify active combinations of DNA G-quadruplex stabilizer agents and targeted small molecules. Complex spheroids include a stromal component modeled by human endothelial cells (HUVEC) and fibroblasts modeled by human mesenchymal stem cells (MSCs). The concentration ranges selected for each drug and investigational agent were based upon clinically achievable concentrations if the clinical Cmax of the agent was known.
# Compounds. The drugs and investigational agents: pidnarulex (CX-5461; NSC782164), APTO-253 (NSC789042), BRACO-19 (NSC847499), peposertib (NSC802822), ceralasertib (NSC780249), elimusertib (NSC800525), camonsertib (NSC841442), AZD-1390 (NSC803789), olaparib (NSC753686), talazoparib (NSC767125), ART-558 (NSC835418), sotorasib (NSC818433), MRTX-1133 (NSC836407), SN-38 (NSC673596), topotecan (NSC609699), etoposide (NSC141540), doxorubicin (NSC123127), gemcitabine (NSC613327), 5-fluorouracil (NSC19893), paclitaxel (NSC125973), vemurafenib (NSC761431), panobinostat (NSC761190), R-306465 (JNJ-16241199; NSC773264), adavosertib (NSC754352), TP-3654 (NSC805149), carboplatin (NSC241240), KSQ-4279 (NSC840948), and staurosporine (NSC755774) were obtained from the National Cancer Institute (NCI) Developmental Therapeutics Program Chemical Repository (34). The FDA-approved anticancer drug set is available from the NCI Developmental Therapeutics Program. […] The stock solutions were prepared in dimethyl sulfoxide (DMSO, Sigma-Aldrich, St. Louis, MO, cat. D2650) at 800-fold the tested concentration and stored at -70 degrees C prior to their use. All drugs and investigational agents were tested over a range starting from a high concentration at or near the clinical Cmax and decreasing in half-log increments. If the clinical Cmax for an agent had not been determined, the highest concentration tested was 10 microM.
# 2.3 Cell Culture. All cells were maintained in an incubator at 37 degrees C and 5% CO2 with 95% humidity. The PDC lines were cultured according to standard operating procedures established by the NCI PDMR. All PDCs were thawed and cultured in Matrigel-coated flasks prepared with a working solution of 1X Ham's F-12 nutrient mix, without supplementation (Invitrogen, cat. 11765054), 100 U/mL penicillin-streptomycin (Invitrogen, cat. 15140122), and 2.5% Matrigel (Corning Inc., cat. 354248) for the first three passages. The 857933-349-R-J2-PDC line was cultured in 6C/Colon 1B media, which includes advanced DMEM/F-12 (Thermo Fisher Scientific, cat. 12634028), 10 mM HEPES (Thermo Fisher Scientific, cat. 15630080), 1X GlutaMAX supplement (Thermo Fisher Scientific, cat. 35050061), 0.1 mg/mL primocin (InvivoGen, cat. ant-pm-2), 10% defined fetal bovine serum, heat inactivated (HyClone Laboratories Inc., cat. SH30070.03HI), 50% L-WRN conditioned media (ATCC, cat. CRL-3276), 1.25 mM N-Acetyl-L-cysteine (Sigma-Aldrich, cat. A9165), 10 mM nicotinamide (Sigma-Aldrich, cat. N0636), 1X B-27 supplement (Thermo Fisher Scientific, cat. 17504044), 1X N-2 supplement (Thermo Fisher Scientific, cat. 17502048), 10 microM Y-27632 dihydrochloride (Tocris Bioscience, cat. 1254), and 50 ng/mL human EGF recombinant protein (Thermo Fisher Scientific, cat. PHG0311). The 485176-168-R4-J1-PDC line was cultured in Panc media, which includes all 6C/Colon 1B media components plus 100 ng/mL human FGF-10 (Thermo Fisher Scientific, cat. 100-26), 500 nM SB-431542 (Selleckchem, cat. S1067), and gastrin (Tocris, cat. 3006).
# […]
# [1] = second compound 0.0316 µM, first compound 0.0316 µM
# [2] = second compound 0.0316 µM, first compound 0.1 µM
# [3] = second compound 0.0316 µM, first compound 0.316 µM
# [4] = second compound 0.0316 µM, first compound 1 µM
# [5] = second compound 0.0316 µM, first compound 3.16 µM
# [6] = second compound 0.0316 µM, first compound 10 µM
# [7] = second compound 0.1 µM, first compound 0.0316 µM
# [8] = second compound 0.1 µM, first compound 0.1 µM
# [9] = second compound 0.1 µM, first compound 0.316 µM
# [10] = second compound 0.1 µM, first compound 1 µM
# [11] = second compound 0.1 µM, first compound 3.16 µM
# [12] = second compound 0.1 µM, first compound 10 µM
# [13] = second compound 0.316 µM, first compound 0.0316 µM
# [14] = second compound 0.316 µM, first compound 0.1 µM
# [15] = second compound 0.316 µM, first compound 0.316 µM
# [16] = second compound 0.316 µM, first compound 1 µM
# [17] = second compound 0.316 µM, first compound 3.16 µM
# [18] = second compound 0.316 µM, first compound 10 µM
# [19] = second compound 1 µM, first compound 0.0316 µM
# [20] = second compound 1 µM, first compound 0.1 µM
# [21] = second compound 1 µM, first compound 0.316 µM
# [22] = second compound 1 µM, first compound 1 µM
# [23] = second compound 1 µM, first compound 3.16 µM
# [24] = second compound 1 µM, first compound 10 µM
# [25] = second compound 3.16 µM, first compound 0.0316 µM
# [26] = second compound 3.16 µM, first compound 0.1 µM
# [27] = second compound 3.16 µM, first compound 0.316 µM
# [28] = second compound 3.16 µM, first compound 1 µM
# [29] = second compound 3.16 µM, first compound 3.16 µM
# [30] = second compound 3.16 µM, first compound 10 µM
# [31] = second compound 10 µM, first compound 0.0316 µM
# [32] = second compound 10 µM, first compound 0.1 µM
# [33] = second compound 10 µM, first compound 0.316 µM
# [34] = second compound 10 µM, first compound 1 µM
# [35] = second compound 10 µM, first compound 3.16 µM
# [36] = second compound 10 µM, first compound 10 µM
# 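Further: spheroids exposed to compounds for seven days.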
structure (smiles),measurement,setting,value
CC1COCCN1c1cc(C2(S(C)(=N)=O)CC2)nc(-c2ccnc3[nH]ccc23)n1 (centres undefined) + Cc1[nH]c2ccc(F)cc2c1-c1nc2c3cccnc3c3ncccc3c2[nH]1,IC50,second compound 0.0316 µM,5.87 µM
same,IC50,second compound 0.1 µM,5.36 µM
same,IC50,second compound 0.316 µM,5.07 µM
same,IC50,second compound 1 µM,6.49 µM
same,IC50,second compound 3.16 µM,4.68 µM
same,IC50,second compound 10 µM,3.49 µM
same,"viability, T/C",[1],101%
same,"viability, T/C",[2],102%
same,"viability, T/C",[3],121%
same,"viability, T/C",[4],96.5%
same,"viability, T/C",[5],76%
same,"viability, T/C",[6],28.1%
same,"viability, T/C",[7],106%
same,"viability, T/C",[8],96.9%
same,"viability, T/C",[9],110%
same,"viability, T/C",[10],107%
same,"viability, T/C",[11],68.7%
same,"viability, T/C",[12],27.9%
same,"viability, T/C",[13],99.7%
same,"viability, T/C",[14],110%
same,"viability, T/C",[15],110%
same,"viability, T/C",[16],103%
same,"viability, T/C",[17],64.8%
same,"viability, T/C",[18],28.7%
same,"viability, T/C",[19],106%
same,"viability, T/C",[20],104%
same,"viability, T/C",[21],109%
same,"viability, T/C",[22],108%
same,"viability, T/C",[23],72.6%
same,"viability, T/C",[24],36.5%
same,"viability, T/C",[25],98.3%
same,"viability, T/C",[26],105%
same,"viability, T/C",[27],95.7%
same,"viability, T/C",[28],87%
same,"viability, T/C",[29],60.2%
same,"viability, T/C",[30],30.3%
same,"viability, T/C",[31],86.7%
same,"viability, T/C",[32],84%
same,"viability, T/C",[33],89.6%
same,"viability, T/C",[34],86.2%
same,"viability, T/C",[35],51.8%
same,"viability, T/C",[36],30.1%
O=C(c1cc(Cc2n[nH]c(=O)c3ccccc23)ccc1F)N1CCN(C(=O)C2CC2)CC1 + Cc1[nH]c2ccc(F)cc2c1-c1nc2c3cccnc3c3ncccc3c2[nH]1,IC50,second compound 0.0316 µM,> 10 µM
same,IC50,second compound 0.1 µM,> 10 µM
same,IC50,second compound 0.316 µM,> 10 µM
same,IC50,second compound 1 µM,> 10 µM
same,IC50,second compound 3.16 µM,> 10 µM
same,IC50,second compound 10 µM,> 10 µM
same,"viability, T/C",[1],98.5%
same,"viability, T/C",[2],89.7%
same,"viability, T/C",[3],101%
same,"viability, T/C",[4],100%
same,"viability, T/C",[5],79.8%
same,"viability, T/C",[6],60.8%
same,"viability, T/C",[7],109%
same,"viability, T/C",[8],97.3%
same,"viability, T/C",[9],93.2%
same,"viability, T/C",[10],94.6%
same,"viability, T/C",[11],94.9%
same,"viability, T/C",[12],58.1%
same,"viability, T/C",[13],97.6%
same,"viability, T/C",[14],103%
same,"viability, T/C",[15],93%
same,"viability, T/C",[16],91.7%
same,"viability, T/C",[17],77.6%
same,"viability, T/C",[18],58.1%
same,"viability, T/C",[19],97.2%
same,"viability, T/C",[20],99.8%
same,"viability, T/C",[21],87.5%
same,"viability, T/C",[22],88%
same,"viability, T/C",[23],75.8%
same,"viability, T/C",[24],65.5%
same,"viability, T/C",[25],87.4%
same,"viability, T/C",[26],107%
same,"viability, T/C",[27],84%
same,"viability, T/C",[28],87.7%
same,"viability, T/C",[29],77.6%
same,"viability, T/C",[30],63.3%
same,"viability, T/C",[31],94.1%
same,"viability, T/C",[32],81.4%
same,"viability, T/C",[33],90.9%
same,"viability, T/C",[34],79.6%
same,"viability, T/C",[35],73.2%
same,"viability, T/C",[36],61.5%
